Literature values in PMC10895697 (JAC-Antimicrobial Resistance, 2024).
Values after ≈ are worked out from the molar mass of the structure shown.

How the values were obtained:
[1] = system: S. aureus in osteoblasts; parameters: method as in PMID 34423360; details: at 100x its MIC; cited from earlier work
[2] = system: S. aureus; parameters: method as in ref 11 (Chauvelot et al.); details: ref 11 (Chauvelot et al.); cited from earlier work

In the case of `CN[C@H]1C(=O)N[C@@H]2Cc3ccc(cc3)Oc3cc4cc(c3O[C@@H]3O[C@H](C(=O)O)[C@@H](O)[C@H](O)[C@H]3NC(=O)CCCCCCCCC(C)C)Oc3ccc(cc3Cl)[C@@H](O)[C@@H]3NC(=O)[C@H](NC(=O)[C@@H]4NC(=O)[C@@H](NC2=O)c2cc(cc(O)c2Cl)Oc2cc1ccc2O)c1ccc(O)c(c1)-c1c(O[C@H]2O[C@H](CO)[C@@H](O)[C@H](O)[C@@H]2O)cc(O)cc1[C@@H](C(=O)NCCCN(C)C)NC3=O` [dalbavancin], the “peak of reduction of S. aureus in osteoblasts” value [1] is given as 51.6% and the MIC [2] is given as 0.125 µg/mL (≈ 0.0688 µM).
